Source: US20180172683A1, “METHODS FOR ANALYZING THE INTERACTION BETWEEN A TARGET PROTEIN AND A LIGAND” (UNIVERSITY OF SOUTHERN CALIFORNIA, priority 2015, published 2018)
Peptide text beside a SMILES is read from it. * marks the point of attachment. Biotin = O=C1N[C@H]2[C@H](CS[C@H]2CCCCC(=O)*)N1

Target: T1, Bcl-xL (Homo sapiens, UniProt Q07817)
T1 construct: The gene for the first 209 amino acids of Bcl-xL; made in house; host or cells: E. coli BL21(DE3), pET24a vector
Assay: Equilibrium immunoassays (ELISA and AMMP data combined), Kd of ligands for Bcl-xL
Assay type: binding
Details: for Kd: Kd Determined Using Known [L]0, Monovalent equilibrium model, ELISA and AMMP data; for Kd / Ratio of Fit [L]0 to Known [L]0: mean ± standard error; for Ratio of Fit [L]0 to Known [L]0: simultaneous fit of Kd and [L]0
Method: Sample Preparation. A set of serially diluted Bcl-xL standards, at 2× the desired concentration, were made in sample buffer. For each ligand to be tested (such as peptide ligands), a set of dilutions at 2× the desired concentration was also prepared. The Bcl-xL samples were either mixed 1:1 with sample buffer (standards) or ligands (samples), and allowed to incubate at room temperature for 6 days. After the incubation, the standards and samples were analyzed using ELISA or the ViBE BioAnalyzer (FIG. 1).
ELISA Assays. ELISA plates were incubated overnight at 4° C. with 1.5 nmol of streptavidin (for D1 or Bcl-xL capture ligands) or 54H6 mAb in 1×PBS. Plates were washed 3× with wash buffer (1×PBS+0.1% (v/v) Tween-20) and blocked with 1×PBS+5% (w/v) BSA for two hours. For the D1 or Bcl-xL capture ligands, 100 μL of a 30 nM solution of the reagents was added to wells and incubated for 1 hour. This step was skipped for the 54H6 mAb capture ligand (already immobilized on the plate). After the capture ligand incubation, 100 μL of sample or standards were added in each well, and incubated for 1 hour at room temperature. Plates were washed, incubated with HRP-conjugated probe antibody (such as anti-HIS tag antibody) in sample buffer for 1 hour, washed, and incubated with TMB substrate (Thermo Scientific). Reactions were stopped after approximately 10 minutes with 2 M sulfuric acid, and the absorbance at 450 nm was measured via a plate reader (Molecular Devices). The ligand of interest, capture ligand, target protein, and probe ligand used in example ELISA assays performed are highlighted in the table below.
AMMP Assays. For the AMMP assays, 90 μL of each sample or standards was incubated with 30 μL of magnetic beads (12 μg of beads/mL) and fluorescein-labeled antibody (8 nM) in sample buffer for 1 hour. The experiment's run buffer was 1×PBS+1% (v/v) Tween-20+1% (v/v) heat-treated FBS (Invitrogen; FBS was heat treated for 15 minutes at 65° C. and filtered). BioScale Universal Detection Cartridges were used in performing all of the assays. The device was used per the manufacturer's instructions. The ligand of interest, capture ligand, target protein, and probe ligand used in example AMMP assays performed are highlighted in the table below.
Monovalent and Divalent Analysis. The data for both sets of target concentrations were simultaneously fit for Kd (in the Kd only fit) or Kd and Mo. The data was fitted to the equilibrium model using the lowest absolute deviation method, by varying either only Kd or both Kd and [L]0 simultaneously. The monovalent assay fitting was done by Excel Solver (GRG Non-Lin method) using a set of five initial values. The set of values which provided the lowest error after the fitting were chosen as the final values. For the divalent assays, the fitting was performed by MATLAB's fminsearch function and a set of 10 initial values for Kd1, Kd2, and [L]0. […] For the divalent reverse assay, an extra parameter, Cf, was also determined by fitting (FIG. 7 Reverse Assay).
Enzymatic Kd Calculation Assay. The Kd values of ligands of interest were determined using a protocol modified from Friguet et al., Journal of immunological methods, 77, 305-319 (1985). The samples were prepared and analyzed by ELISA assay in a similar process as described above. The OD450 for the standards and their concentration values were fit to a four parameter logistic curve (standard curve). The concentration of the free Bcl-xL in solution (responsible for the signal) for each sample was calculated using the standard curve, and converted into percent of Bcl-xL bound by ligand in solution.

T1 sequence (Q07817 1-209 limits assumed): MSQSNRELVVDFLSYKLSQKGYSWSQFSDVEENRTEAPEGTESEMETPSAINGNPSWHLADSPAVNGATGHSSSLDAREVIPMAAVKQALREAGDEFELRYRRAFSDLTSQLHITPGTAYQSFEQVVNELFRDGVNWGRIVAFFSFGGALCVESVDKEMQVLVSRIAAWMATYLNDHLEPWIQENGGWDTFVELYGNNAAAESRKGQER

With CC[C@H](C)[C@H](NC(=O)[C@H](C)NC(=O)[C@@H](NC(=O)[C@@H](N)CCSC)[C@@H](C)CC)C(=O)N[C@@H](CO)C(=O)N[C@H](C(=O)N[C@H](C(=O)N[C@@H](Cc1ccc(O)cc1)C(=O)N[C@@H](CC(N)=O)C(=O)N[C@@H](Cc1ccc(O)cc1)C(=O)N[C@@H](CCCCN)C(=O)N[C@@H](CCCCN)C(=O)N[C@@H](C)C(=O)N[C@@H](C)C(=O)N[C@@H](CC(=O)O)C(=O)N[C@@H](Cc1c[nH]cn1)C(=O)N[C@@H](Cc1ccc(O)cc1)C(=O)N[C@@H](C)C(=O)N[C@@H](CCSC)C(=O)N[C@H](C(=O)N[C@@H](CCCCN)C(=O)NCC(=O)N[C@@H](CO)C(=O)N[C@@H](CCCCNC(=O)CCCC[C@@H]1SC[C@@H]2NC(=O)N[C@@H]21)C(N)=O)[C@@H](C)O)[C@@H](C)CC)[C@@H](C)O [D1] (H-MIAISTIYNYKKAADHYAMTKGSK(Biotin)-NH2) the kon was 240000 M⁻¹ s⁻¹, the Kd was 0.0085 ± 0.002 nM and the “Ratio of Fit [L]0 to Known [L]0” value was 109% ± 7%.

In the case of CC[C@H](C)[C@H](NC(=O)[C@@H](NC(=O)[C@@H](NC(=O)[C@@H](NC(=O)[C@H](CCC(=O)O)NC(=O)[C@@H](NC(=O)[C@@H](N)CCSC)[C@@H](C)CC)[C@@H](C)O)[C@@H](C)CC)[C@@H](C)O)C(=O)N[C@@H](Cc1ccc(O)cc1)C(=O)N[C@@H](CC(N)=O)C(=O)N[C@@H](Cc1ccc(O)cc1)C(=O)N[C@@H](CCCCN)C(=O)N[C@@H](CCCCN)C(=O)N[C@@H](C)C(=O)N[C@@H](C)C(=O)N[C@@H](CC(=O)O)C(=O)N[C@@H](Cc1c[nH]cn1)C(=O)N[C@@H](Cc1ccccc1)C(=O)N[C@@H](CO)C(=O)N[C@@H](CCSC)C(=O)N[C@@H](CO)C(=O)N[C@@H](CCSC)C(=O)NCC(=O)N[C@@H](CO)C(=O)N[C@@H](CCCCNC(=O)CCCC[C@@H]1SC[C@@H]2NC(=O)N[C@@H]21)C(N)=O [E1] (H-MIETITIYNYKKAADHFSMSMGSK(Biotin)-NH2), the kon is reported as 310000 M⁻¹ s⁻¹, the Kd is reported as 0.039 ± 0.006 nM and the “Ratio of Fit [L]0 to Known [L]0” value is reported as 88% ± 10%.
